Measured values as given in patent publication US20260053790A1, “TREATMENTS FOR CONDITIONS INVOLVING INCREASED IL-6 LEVELS” (X4 Pharmaceuticals, Inc., priority 2022, published 2026).

Columns and labels:
WM cells [1] = test: Soluble IL-6 treatment of WM cells in the absence of BMSC: CXCR4 expression and IgM secretion; assay type: cell-based; conditions: blockade of IL-6/IL6R/STAT3 axis, FIG. 3
Description: FIG. 3: Even in the Absence of BMSC, Soluble IL-6 Upregulates CXCR4 Expression & IgM Secretion in WM Cells; which is Prevented by Blockade of IL-6/IL6R/STAT3 Axis. BP-1-102 is a STAT3 inhibitor.

IL-6 = IL-6 overexpression and hypersecretion (co-culture of BMSC with WM cells); assay type: cell-based; conditions: mavorixafor as a single agent
[2] = Solubility of mavorixafor by pH and in water; assay type: physicochemical
Procedure: Mavorixafor (formerly designated X4P-001 and AMD11070) is a CXCR4 antagonist, with molecular formula C21H27N5; molecular weight 349.48 amu; and appearance as a white to pale yellow solid. Solubility: freely soluble in the pH range 3.0 to 8.0 (>100 mg/mL), sparingly soluble at pH 9.0 (10.7 mg/mL) and slightly soluble at pH 10.0 (2.0 mg/mL). […] Melting point: 108.9° C.

WM cells [3] = test: Co-culture of BMSC with WM cells: BM stroma-induced IgM hypersecretion; assay type: cell-based; conditions: FIG. 2
in vivo = conditions: Terminal half-life
Procedure: In certain embodiments, the dosage composition may be provided twice a day in divided dosage, approximately 12 hours apart. In other embodiments, the dosage composition may be provided once daily. […] Dosage for oral administration may be from about 100 mg to about 1200 mg once or twice per day.

SMILES | Soluble IL-6-induced upregulation of CXCR4 expression in WM cells (WM cells [1]) | Soluble IL-6-induced upregulation of IgM secretion in WM cells (WM cells [1]) | Overexpression and hypersecretion of IL-6 (IL-6) | solubility ([2]; aqueous buffer, pH range 3.0 to 8.0 (freely soluble)) | Solubility in water ([2]; water) | Bone marrow stroma-induced IgM hypersecretion in WM cells (WM cells [3]) | half-life (in vivo)
CN(CC(=O)N(Cc1ccc(C2CCCCC2)cc1)c1ccc(C(=O)O)c(O)c1)S(=O)(=O)c1c(F)c(F)c(F)c(F)c1F [BP-1-102] | Prevented | Prevented |  |  |  |  | 
NCCCCN(Cc1nc2ccccc2[nH]1)[C@H]1CCCc2cccnc21 [Mavorixafor, mavorixafor] |  |  | significantly reduces | > 100 mg/mL | only slightly soluble | blocks | 720 to 1440 min
